# Measurements as given in paper PMC8252455, “Prediction of a clinically effective dose of THY1773, a novel V 1B receptor antagonist, based on preclinical data” (Biopharmaceutics & Drug Disposition, 2021).
# Tests used:
# CYP2D6 = target: T1, CYP2D6 (Homo sapiens, UniProt P10635); test: Reaction phenotyping in HLMs with quinidine; type: in vitro ADME
# T1 construct: THY1773 (500 nmol/L) was incubated with pooled HLMs (0.5 mg protein/ml); tissue Sekisui XenoTech, LLC; host or cells: pooled human liver microsomes (50 donors)
# T1 sequence (P10635 whole entry): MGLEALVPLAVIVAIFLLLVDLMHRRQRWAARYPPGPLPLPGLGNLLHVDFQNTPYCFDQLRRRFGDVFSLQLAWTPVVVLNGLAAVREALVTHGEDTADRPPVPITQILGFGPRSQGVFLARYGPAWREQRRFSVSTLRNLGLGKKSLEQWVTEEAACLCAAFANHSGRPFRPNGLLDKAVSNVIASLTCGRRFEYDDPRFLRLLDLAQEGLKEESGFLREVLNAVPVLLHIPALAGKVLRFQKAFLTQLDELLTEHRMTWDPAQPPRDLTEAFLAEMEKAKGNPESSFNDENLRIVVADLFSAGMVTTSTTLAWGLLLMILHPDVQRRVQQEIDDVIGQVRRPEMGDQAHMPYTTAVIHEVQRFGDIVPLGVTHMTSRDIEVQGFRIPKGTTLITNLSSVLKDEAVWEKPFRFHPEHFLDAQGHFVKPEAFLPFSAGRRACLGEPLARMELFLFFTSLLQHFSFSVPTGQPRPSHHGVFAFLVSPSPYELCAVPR
# Protocol: Reaction phenotyping using cDNA expressed recombinant human CYP isoforms, CYP1A2, CYP2B6, CYP2C8, CYP2C9, CYP2C19, CYP2D6, and CYP3A4, was conducted. Each recombinant enzyme (100 pmol/ml) in potassium phosphate buffer (pH 7.4; 100 mmol/L for CYP3A4, 50 mmol/L for the others) was preincubated with [^3H]THY1773 (10 μmol/L) at 37°C for 5 min. The reactions were initiated by the addition of NADPH‐generating system (1 mmol/L NADP^+, 5 mmol/L G‐6‐P, 1 unit/ml G‐6‐PDH, and 5 mmol/L MgCl2) and incubated for 0 or 60 min. The reactions were terminated by the addition of an equal volume of acetonitrile/methanol (9:1, vol/vol), followed by centrifugation at 1650 × g for 10 min at 4°C. An aliquot of the supernatant was subjected to an Agilent 1200 HPLC system (Agilent Technologies, Inc.) equipped with a radiochemical flow detector (Radiomatic 625TR; Perkin Elmer, Inc.), and formation of metabolites was evaluated. Reaction phenotyping study was also conducted using HLMs and selective chemical inhibitors for CYP2D6 and CYP3A, which were assumed to have significant roles in THY1773 metabolism from recombinant metabolic stability. Quinidine (1 μmol/L) for CYP2D6 and ketoconazole (1 μmol/L) for CYP3A were used as selective inhibitors. THY1773 (500 nmol/L) was incubated with pooled HLMs (0.5 mg protein/ml) in potassium phosphate buffer (100 mmol/L, pH 7.4) in the absence or presence of the selective inhibitors. The reactions were initiated by the addition of NADPH generating system (1.3 mmol/L β‐NADP^+, 3.3 mmol/L G‐6‐P, 3.3 mmol/L MgCl2, and 0.4 units/ml G‐6‐PDH), and incubated at 37°C for 30 min. The reactions were terminated by the addition of two volumes of acetonitrile/methanol (9:1, vol/vol) containing the IS. […] The CLint was calculated by the method as described previously under metabolic stability in animal liver microsomes, and the fraction metabolized (fm) was calculated by Equation (1): (1) fm=1−(CLint, with inh/CLint) where CLint is intrinsic clearance without specific inhibitor and CLint,with inh is intrinsic clearance in the presence of specific inhibitor.
# [1] = Plasma protein binding by equilibrium dialysis, dog plasma; type: in vitro ADME; settings: 300 ng/ml
# Protocol: The plasma protein binding of THY1773 in rats, dogs, and humans was evaluated by an equilibrium dialysis method using a 96‐well equilibrium dialysis plate (HTDialysis) with a 12–14 kDa cut‐off dialysis membrane. THY1773 was dissolved in dimethyl sulfoxide, and spiked with rat, dog, or human plasma at a final concentration of 300 ng/ml. An aliquot of plasma containing THY1773 and sodium phosphate buffer (pH 7.4) was added into the donor side and the receiver side of each designated well, respectively. After incubation for 6 h at a rate of 50 oscillation/min at 37°C in an air incubator, an aliquot of each side of each well was collected and mixed with acetonitrile/methanol (9:1, vol/vol) containing the IS. Each sample was centrifuged at 3974 × g for 10 min at 4°C to remove the precipitated proteins, and the resultant supernatants were subjected to LC‐MS/MS analysis. The protein binding (%) was calculated using the Boudinot formula (Boudinot & Jusko, 1984).
# [2] = test system: anterior pituitary V1B receptor; parameters: method as in Kamiya et al., 2020; settings: rats; ref Kamiya et al., 2020; cited from earlier work
# plasma ACTH = test system: plasma ACTH; parameters: method as in Kamiya et al., 2020; settings: rats, oral, doses with >50% V1B occupancy; ref Kamiya et al., 2020; cited from earlier work
# [3] = PK and urinary excretion in dogs; type: in vivo, dog
# Protocol: The PK and urinary excretion of THY1773 in rats (1 mg/kg) and dogs (0.5 mg/kg) under fasted conditions were evaluated following intravenous or oral administration of THY1773. THY1773 was dissolved in 10% (vol/vol) hydroxypropyl‐β‐cyclodextrin at pH 4 for intravenous administration, or suspended in 0.5% (wt/vol) methyl cellulose 400 for oral administration. After a single intravenous or oral administration of THY1773, blood samples were collected into tubes containing EDTA‐2K as an anticoagulant. The scheduled time points were predose (dog only), 5 (intravenous only), 15, 30 min, 1, 2, 4, 8, 12, and 24 h postdose. Plasma was separated by centrifugation. Urine samples were collected into bottles set on ice for 24 h after intravenous administration of THY1773. Plasma and urine samples were treated with 4 volumes of acetonitrile/methanol (9:1, vol/vol) containing the IS. After centrifugation (3639 × g, 4°C, 10 min) to remove precipitated proteins, the supernatant was subjected to LC‐MS/MS analysis. The distributions of THY1773 into brain and pituitary gland in rats were investigated after a single oral administration of THY1773 (1 mg/kg). Blood was collected from the tail vein into tubes containing EDTA‐2K at 1 h after a single oral administration of THY1773, and the plasma was separated by centrifugation (12000 × g, 4°C, 3 min). After blood collection, the brain and pituitary gland were excised followed by homogenization with approximately 4 volumes of distilled water. Plasma, brain, and pituitary samples were treated with 4 volumes of acetonitrile/methanol (9:1, vol/vol) containing the IS and centrifuged (3639 × g, 4°C, 10 min). Aliquots of the supernatant were subjected to LC‐MS/MS analysis.
# The plasma concentration–time profiles of THY1773 were analyzed by a non‐compartmental analysis with PK analysis software Phoenix WinNonlin® (version 6.1; Certara), and the PK parameters were calculated. The fraction excreted in urine was calculated by dividing the amount of THY1773 excreted in urine by the administered dose.
# depressive-like behavior = test system: depressive-like behavior; parameters: method as in Kamiya et al., 2020; settings: ref Kamiya et al., 2020; cited from earlier work
# [4] = male dogs, iv 0.5 mg/kg, mean (%CV), n=3
# [5] = male dogs, po 0.5 mg/kg, mean (%CV), n=3
smiles,measurement,setting,value
CC(C)NC(=O)Cn1c(-c2cccc(Cl)c2)nn(-c2ccc(CCN3CCOCC3)cc2)c1=O [THY1773],CLint,"CYP2D6; HLMs, with quinidine 1 μmol/L",10.2 ± 0.509 µL/min/mg
same,"fm,CYP2D6","CYP2D6; PBPK input, experimental data",0.089
same,fm (fraction metabolized),"CYP2D6; by CYP2D6, HLMs, quinidine 1 μmol/L",0.0893
same,Plasma protein binding,[1],89.6%
same,Occupancy of anterior pituitary V1B receptor after oral administration,[2],dose‐dependently
same,Effect on increase in plasma ACTH induced by CRF/desmopressin challenge,plasma ACTH,significantly inhibited
same,CLrenal compared with fu × GFR,[3]; dogs,comparable to fu × GFR
same,CLtotal as share of hepatic blood flow,"[3]; dogs, single intravenous administration",approximately 30 % of hepatic blood flow
same,Urinary excretion of unchanged drug,"[3]; dogs, within 24 h post intravenous dosing",2.0%
same,AUC0‐∞,[3]; [4],664 (23.7) h·ng/ml
same,CLtotal,[3]; [4],785 (26.4) ml/h/kg
same,Vdss,[3]; [4],2020 (37.6) ml/kg
same,t1/2,[3]; [4],3.07 (59.3) h
same,AUC0‐∞,[3]; [5],307 (37.7) h·ng/ml
same,Cmax,[3]; [5],105 (12.3) ng/ml
same,F (oral bioavailability),[3]; [5],45.0 (16.6) %
same,t1/2,[3]; [5],2.40 (81.2) h
same,tmax,[3]; [5],0.500 (0.0) h
same,Effect on depressive-like behavior induced by repeated corticosterone injection,depressive-like behavior,significantly improved
